This is an account of results in patent US8252810B2, “Bicycloamine derivatives” (Eisai R&D Management Co., Ltd., priority 2008, dated 2012).

Structures can show the parent of a compound that is named as a salt.

Assay [1] has as its system sodium channels in cultured rat hippocampus. Conditions: Patent document 1, Example 129; cited from earlier work.
The subject of assay [2] is ectopic firing. Conditions: as described in Patent document 1, Example 129; cited from earlier work.
Assay [3] concerns the target T1, human Nav1.8 (Homo sapiens, UniProt Q9Y5Y9).
T1 construct: expressed in transfected cells
Put plainly: Pharmacological effects on TTX-resistant Na channels in cells expressing human Nav1.8 gene (membrane potential dye, deltamethrin stimulation). The class given is cell-based. The method, then:
Pharmacological Effects on TTX-Resistant Na Channels in Cells Expressing Human Nav1.8 Gene
A cell line expressing human Nav1.8 gene was used to evaluate the pharmacological effects of compounds of the invention.
. A membrane potential-sensitive dye containing TTX (final concentration: 0.25 μM) was added to cells expressing human Nav1.8, prior to incubation at 37° C. for 30-60 minutes. • 2. The test compound was added to the cells, and the mixture was stationed for 15-30 minutes at room temperature while shielded from light. • 3. Deltamethrin (final concentration: 50 μM), a Nav1.8 channel stimulant, was added, and the change in fluorescence intensity due to increased membrane potential was measured. Pharmacological Evaluation
The Nav1.8 channel inhibition of the test compound was determined by the following equation. […] Test Results

T1 sequence (Q9Y5Y9 whole entry): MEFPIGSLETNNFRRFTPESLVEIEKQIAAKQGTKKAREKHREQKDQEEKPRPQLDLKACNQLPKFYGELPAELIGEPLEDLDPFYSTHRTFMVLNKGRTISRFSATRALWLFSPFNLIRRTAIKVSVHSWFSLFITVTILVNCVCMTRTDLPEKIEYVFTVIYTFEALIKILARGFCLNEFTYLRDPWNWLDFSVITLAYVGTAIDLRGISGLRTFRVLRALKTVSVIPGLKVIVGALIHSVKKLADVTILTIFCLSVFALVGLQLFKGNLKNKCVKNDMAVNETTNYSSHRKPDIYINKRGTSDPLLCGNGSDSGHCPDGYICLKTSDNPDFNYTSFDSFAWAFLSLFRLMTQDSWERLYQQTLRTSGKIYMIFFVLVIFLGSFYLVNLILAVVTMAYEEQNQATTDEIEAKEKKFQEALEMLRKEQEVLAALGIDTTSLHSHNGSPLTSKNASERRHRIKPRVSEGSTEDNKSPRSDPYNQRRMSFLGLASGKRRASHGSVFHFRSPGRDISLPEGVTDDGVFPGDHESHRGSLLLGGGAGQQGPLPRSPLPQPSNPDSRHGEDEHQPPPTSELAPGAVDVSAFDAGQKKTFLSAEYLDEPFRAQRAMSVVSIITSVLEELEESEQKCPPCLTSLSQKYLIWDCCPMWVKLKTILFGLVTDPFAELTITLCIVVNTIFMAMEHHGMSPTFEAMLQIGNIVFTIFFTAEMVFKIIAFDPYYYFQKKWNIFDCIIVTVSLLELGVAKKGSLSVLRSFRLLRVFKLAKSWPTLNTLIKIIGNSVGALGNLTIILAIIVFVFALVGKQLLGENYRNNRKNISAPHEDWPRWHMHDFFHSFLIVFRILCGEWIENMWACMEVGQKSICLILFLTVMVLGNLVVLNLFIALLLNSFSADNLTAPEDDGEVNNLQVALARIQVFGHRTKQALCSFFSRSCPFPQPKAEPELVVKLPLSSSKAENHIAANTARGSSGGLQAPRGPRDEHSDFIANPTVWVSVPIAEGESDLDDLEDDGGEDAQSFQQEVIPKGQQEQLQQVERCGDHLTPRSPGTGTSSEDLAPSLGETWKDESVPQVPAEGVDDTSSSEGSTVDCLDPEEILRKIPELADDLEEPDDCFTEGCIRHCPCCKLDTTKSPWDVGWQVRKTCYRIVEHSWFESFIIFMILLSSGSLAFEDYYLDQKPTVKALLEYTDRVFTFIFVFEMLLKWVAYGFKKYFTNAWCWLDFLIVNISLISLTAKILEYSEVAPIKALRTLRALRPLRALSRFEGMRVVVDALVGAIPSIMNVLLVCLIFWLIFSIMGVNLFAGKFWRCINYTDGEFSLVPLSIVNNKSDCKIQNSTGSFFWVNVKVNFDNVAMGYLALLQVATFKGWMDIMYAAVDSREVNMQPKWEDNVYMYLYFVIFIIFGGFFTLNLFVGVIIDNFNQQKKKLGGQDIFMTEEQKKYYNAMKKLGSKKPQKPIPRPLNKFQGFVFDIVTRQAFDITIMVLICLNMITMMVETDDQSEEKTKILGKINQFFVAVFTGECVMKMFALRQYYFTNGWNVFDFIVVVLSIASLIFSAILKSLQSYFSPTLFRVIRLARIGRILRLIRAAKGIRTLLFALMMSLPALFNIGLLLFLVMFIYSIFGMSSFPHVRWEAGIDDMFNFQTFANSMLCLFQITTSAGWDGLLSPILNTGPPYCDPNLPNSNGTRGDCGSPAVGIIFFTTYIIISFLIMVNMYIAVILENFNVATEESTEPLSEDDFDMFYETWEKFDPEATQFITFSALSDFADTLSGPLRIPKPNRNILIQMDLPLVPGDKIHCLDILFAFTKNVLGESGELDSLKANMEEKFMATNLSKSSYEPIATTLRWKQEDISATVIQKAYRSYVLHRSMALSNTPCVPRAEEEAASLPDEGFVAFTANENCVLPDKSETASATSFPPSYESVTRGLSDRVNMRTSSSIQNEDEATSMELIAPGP

In the case of `O=c1[nH]cccc1CN1CC2CCCC(C1)C2/C=C/c1ccccc1F` (stereo not shown), the “inhibitory activity against sodium channels” value in assay [1] is on record as “has an inhibitory activity”. For the same compound, the “inhibitory activity against ectopic firing” value in assay [2] was “inadequate”.

In the case of `CNCCCN1c2ccccc2CCc2ccccc21` [desipramine], the Nav1.8 channel inhibition entry in assay [3] (30 μM desipramine, reference for complete inhibition under deltamethrin stimulation) is listed as “completely inhibits”.

For the compound `CCn1c(C)nc(=O)n(C[C@H](O)CN2[C@@H]3CC[C@H]2C[C@@H](OCc2ccccc2CF)C3)c1=O` [Example 66, (Endo)-1-ethyl-3-{(R)-3-[3-(2-fluoromethylbenzyloxy)-8-azabicyclo[3.2.1]oct-8-yl]-2-hydroxypropyl}-6-methyl-1H-[1,3,5]triazine-2,4-dione oxalate], in assay [3], the IC50 (as a rule, the concentration that gives 50% inhibition) stood at 5.4 µM.
